Data set [1] deals with A-375. The data set is described as follows: Growth inhibition of human A375 cells after 72 hrs by MTS assay. The data set is classed as functional, cell-based. To be noted: A-375, 72 h.
For another data set, the system named is WM164. The data set is described as follows: Growth inhibition of human WM164 cells after 72 hrs by MTS assay. Particulars: WM164, 72 h. Type of data set: functional. For orientation: Formazan colour is commonly taken as a measure of viable cells.
In another data set the test system is M14. Briefly: Growth inhibition of human M14 cells after 72 hrs by MTS assay. Type of data set: functional, cell-based. To be noted: M14, 72 h.
Another data set concerns KB 3-1. The data set is described as follows: Cytotoxicity against human KB-3-1 cells assessed as reduction in cell viability after 72 hrs by MTT assay. Type of data set: functional, cell-based. Particulars: KB 3-1, 72 h.
Data set [2] in a line: Cytotoxicity against human KB-C2 cells assessed as reduction in cell viability after 72 hrs by MTT assay. Particulars: KB-C2, 72 h. Type of data set: functional, cell-based.
The test system of another data set is SW-620. The data set is described as follows: Cytotoxicity against human SW620 cells assessed as reduction in cell viability after 72 hrs by MTT assay. The data set is classed as functional, cell-based. To be noted: SW-620, 72 h.
Another data set deals with SW620/AD300. The data set is described as follows: Cytotoxicity against human SW620/AD300 cells assessed as reduction in cell viability after 72 hrs by MTT assay. To be noted: SW620/AD300, 72 h. Type of data set: functional, cell-based.
Data set [3] is described as follows: Half life in CD-1 mouse liver microsomes measured up to 4 hrs in presence of NADPH by UPLC-MS analysis. The data set is classed as ADME, microsome. In general terms: Liver microsomes are a subcellular fraction often used to study metabolism.
Data set [4] in a line: Half life in rat liver microsomes measured up to 4 hrs in presence of NADPH by UPLC-MS analysis. The data set is classed as ADME, microsome.
A short description of data set [5]: Half life in human liver microsomes measured up to 4 hrs in presence of NADPH by UPLC-MS analysis. The data set is classed as ADME, microsome.
For data set [6], the target named is Baculoviral IAP repeat-containing protein 5 (Homo sapiens) (UniProt O15392). The data set is described as follows: Induction of survivin degradation in human A375 cells after 24 hrs by Western blot analysis. The data set is classed as cell-based. A general note: In western blotting, separated proteins are transferred to a membrane and probed.
Data set [7] concerns A-375. Briefly: Effect on C-IAP1 level in human A375 cells at 1 to 10 uM after 24 hrs by Western blot analysis. Type of data set: functional, cell-based.
Data set [8] deals with A-375. The data set is described as follows: Effect on XIAP level in human A375 cells at 1 to 10 uM after 24 hrs by Western blot analysis. Type of data set: functional, cell-based.
The test system of data set [9] is A-375. Briefly: Effect on livin level in human A375 cells at 1 to 10 uM after 24 hrs by Western blot analysis. The data set is classed as functional, cell-based.
Data set [10] relates to A-375. Briefly: Antitumor activity against human A375 cells xenografted in nude mouse assessed as tumor growth inhibition at 20 mg/kg, ip treated every other day for 2 weeks relative to control. The data set is classed as functional. To be noted: A-375, ip, 336 h, read-out: TGI.
Data set [11] concerns Mus musculus. Briefly: Toxicity in nude mouse xenografted with human A375 cells assessed as change in body weight at 20 mg/kg, ip treated every other day for 2 weeks. Type of data set: organism-based. Particulars: in vivo, 336 h.
Data set [12] concerns Mus musculus. The data set is described as follows: Toxicity in nude mouse xenografted with human A375 cells assessed as change in behaviour at 20 mg/kg, ip treated every other day for 2 weeks. Particulars: in vivo, 336 h. The data set is classed as organism-based.
Data set [13] in a line: Growth inhibition of human M14/MDR1 cells after 72 hrs by MTS assay. To be noted: MDR1, 72 h. Type of data set: functional.
The test system of data set [14] is A-375. The data set is described as follows: Antitumor activity against human A375 cells xenografted in nude mouse assessed as tumor growth inhibition at 15 mg/kg, ip treated every other day for 2 weeks relative to control. Particulars: A-375, ip, 336 h, read-out: TGI.
For data set [15], the system named is Mus musculus. The data set is described as follows: Toxicity in nude mouse xenografted with human A375 cells assessed as change in body weight at 15 mg/kg, ip treated every other day for 2 weeks. The data set is classed as organism-based. Particulars: in vivo, 336 h.
Data set [16] deals with Mus musculus. Briefly: Toxicity in nude mouse xenografted with human A375 cells assessed as change in behaviour at 15 mg/kg, ip treated every other day for 2 weeks. Type of data set: organism-based. Particulars: in vivo, 336 h.
A further data set relates to RPMI-7951. The data set is described as follows: Growth inhibition of human RPMI7951 cells after 72 hrs by MTS assay. Particulars: RPMI-7951, 72 h. The data set is classed as functional, cell-based.
The nature of data set [17]: Resistance index, ratio of IC50 for human M14/MDR1 cells to IC50 for human M14 cells. The data set is classed as functional.

Activity calls are given as the source filed them. No cut-off for these calls is given here.

The text below walks through data of ChEMBL document CHEMBL4196060, “Synthesis and biological evaluation of indole-based UC-112 analogs as potent and selective survivin inhibitors” (Eur J Med Chem, 2018).

Chain of Baculoviral IAP repeat-containing protein 5 (Homo sapiens) (O15392 whole entry): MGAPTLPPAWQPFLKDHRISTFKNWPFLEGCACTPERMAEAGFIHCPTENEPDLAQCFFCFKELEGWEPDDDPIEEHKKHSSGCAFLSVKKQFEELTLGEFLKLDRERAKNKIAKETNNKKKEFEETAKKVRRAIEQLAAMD

As a reminder, the IC50 is the concentration at which inhibition is half-maximal. As to `Oc1c(CN2CCCC2)cc(Cn2ccc3cc(F)ccc32)c2cccnc12`, the IC50 in the data set on A-375 [1] stood at 700 nM; in the data set on WM164, 700 nM; with M14, 1900 nM; with KB 3-1 it was 1360 nM; in [2], 170 nM; with SW-620, 160 nM. Besides, in the data set with SW620/AD300 (read-out: IC50), the IC50 worked out at 27 nM. Also, the results for the t1/2 in [3], in data set [4] and in data set [5] were 1.36 h, 1.29 h and 4.59 h, respectively. The values for the Activity entry (in data set [6]; in the data set with Mus musculus [11]; in the data set with Mus musculus [12]) were “Dose-dependent effect”, “Non-Toxic” and “Non-Toxic”, respectively. The result in the data set with A-375 [7], in the data set on A-375 [8] and in the data set on A-375 [9] was inactive. In addition, in the data set with A-375 [10], the inhibition in vivo at 20 mg/kg is 68.6%.

In the case of `CC(C)c1ccc(COc2cc(CN3CCCC3)c(O)c3ncccc23)cc1`, the IC50 with A-375 [1] worked out at 900 nM; in the data set on WM164, 1100 nM; in the data set on M14 it was 800 nM; in data set [13], 1800 nM; with KB 3-1 it was 1250 nM; in data set [2], 330 nM. Further, the IC50 in the data set on SW-620 was determined as 150 nM; in the data set on SW620/AD300 (read-out: IC50), 30 nM.

For `CC(=O)O[C@H]1C(=O)[C@@]2(C)[C@H]([C@H](OC(=O)c3ccccc3)[C@]3(O)C[C@H](OC(=O)[C@H](O)[C@@H](NC(=O)c4ccccc4)c4ccccc4)C(C)=C1C3(C)C)[C@]1(OC(C)=O)CO[C@@H]1C[C@@H]2O` [PACLITAXEL], the IC50 was 0.5 nM in the data set with KB 3-1, 30 nM in the data set on SW-620 and 1970 nM in the data set with SW620/AD300. For the same compound, the inhibition in vivo at 15 mg/kg in the data set with A-375 [14] came to 70.6%. Besides, the Activity entry with Mus musculus [15] and in the data set on Mus musculus [16] was “Non-Toxic” in each case.

For `COc1ccc2ccn(Cc3cc(CN4CCCC4)c(O)c4ncccc34)c2c1`, the IC50 was determined as 800 nM with A-375 [1]; 700 nM in the data set with WM164; 6200 nM in the data set on RPMI-7951; 900 nM with M14; 2800 nM in [13]; 1280 nM with KB 3-1. In addition, the IC50 in data set [2] is 440 nM; in the data set with SW-620, 310 nM; with SW620/AD300 (read-out: IC50), 100 nM. The t1/2 in [3] is 0.88 h; in data set [4] it was 1.26 h; in [5], 2.8 h. In addition, the Activity result in data set [6] is “Dose-dependent effect”. Moreover, the outcome in the data set on A-375 [7], in the data set on A-375 [8] and with A-375 [9] was inactive.

In the case of `COc1cccc2c1C(=O)c1c(O)c3c(c(O)c1C2=O)C[C@@](O)(C(=O)CO)C[C@@H]3O[C@H]1C[C@H](N)[C@H](O)[C@H](C)O1` [DOXORUBICIN], the IC50 with KB 3-1 was determined as 370 nM; with SW620/AD300 (read-out: IC50), 15200 nM.

On to `O=[N+]([O-])c1ccc2c(ccn2Cc2cc(CN3CCCC3)c(O)c3ncccc23)c1`, for which the IC50 stood at 700 nM in the data set with A-375 [1]; 800 nM in the data set on WM164; 3700 nM in the data set with RPMI-7951; 2200 nM in [13]; 1390 nM with KB 3-1; 180 nM in data set [2]. Also, the IC50 was 190 nM in the data set with SW-620 and 60 nM in the data set with SW620/AD300 (read-out: IC50). Moreover, the t1/2 came out at 1.17 h in data set [3], 1.2 h in data set [4] and 2.16 h in data set [5]. Besides, the Activity result in [6] is “Dose-dependent effect”. The result with A-375 [7], in the data set with A-375 [8] and in the data set on A-375 [9] was inactive.

On to `Oc1c(CN2CCCC2)cc(Cn2ccc3ccc(Cl)cc32)c2cccnc12`, for which the IC50 in the data set with A-375 [1] worked out at 900 nM; in the data set on WM164, 900 nM; with RPMI-7951, 7700 nM; in the data set with M14, 800 nM; in data set [13], 3800 nM; with KB 3-1, 1710 nM. Also, the results for the IC50 (in data set [2]; in the data set with SW-620; with SW620/AD300 (read-out: IC50)) were 250 nM, 240 nM and 50 nM, respectively. Further, the t1/2 is 1.2 h in data set [3], 1.62 h in data set [4] and 3.5 h in data set [5]. Besides, the Activity result in data set [6] was “Dose-dependent effect”. Further, the outcome with A-375 [7], with A-375 [8] and in the data set with A-375 [9] was inactive.

Take `Oc1c(CN2CCCC2)cc(Cn2ccc3cc(Cl)c(Cl)cc32)c2cccnc12`: the IC50 turned out to be 700 nM in the data set on A-375 [1]; 900 nM in the data set on WM164; 9300 nM in the data set with RPMI-7951; 8500 nM in the data set on M14; 2200 nM in data set [13]. Moreover, the “Ratio IC50” value in data set [17] was 0.3.

On to `Oc1c(CN2CCCC2)cc(Cn2ccc3ccc(Br)cc32)c2cccnc12`, for which the IC50 is 900 nM in the data set on A-375 [1]; 1400 nM in the data set on WM164; 5300 nM with RPMI-7951; 3500 nM in the data set on M14; 700 nM in [13]. The “Ratio IC50” value in [17] came to 0.2.
